In patent US4755517A, “Derivatives of xanthine, pharmaceutical compositions and methods of use therefor” (Warner-Lambert Company, priority 1986, dated 1988):

What was measured:
mouse locomotor activity = test: Locomotor activity of mice, drug alone; type: in vivo, Male Swiss-Webster mice; settings: for percent suppression of locomotion: alone; for effect on spontaneous exploratory activity (in words): mice
Protocol: Suspensions are ultrasonicated for 3 minutes.

adenosine A2 receptor = biological target: T1, adenosine A2 receptor (Rattus norvegicus, UniProt P30543); test: [3H]-NECA binding to rat striatal membranes (A2 affinity, RBA-2)
T1 construct: from tissue; host or cells: rat striatal membranes
T1 sequence (P30543 whole entry): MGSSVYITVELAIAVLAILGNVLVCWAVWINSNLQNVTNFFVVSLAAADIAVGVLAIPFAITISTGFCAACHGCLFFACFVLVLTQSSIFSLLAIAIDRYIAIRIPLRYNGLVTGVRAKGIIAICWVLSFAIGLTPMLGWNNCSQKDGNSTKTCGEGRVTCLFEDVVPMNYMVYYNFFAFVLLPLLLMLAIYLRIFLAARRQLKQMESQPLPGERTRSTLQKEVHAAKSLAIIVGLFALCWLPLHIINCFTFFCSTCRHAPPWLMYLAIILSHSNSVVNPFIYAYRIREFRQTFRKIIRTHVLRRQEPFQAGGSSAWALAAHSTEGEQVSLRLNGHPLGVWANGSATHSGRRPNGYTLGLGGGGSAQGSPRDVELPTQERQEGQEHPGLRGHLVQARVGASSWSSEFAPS

adenosine A1 receptor = biological target: T2, adenosine A1 receptor (Rattus norvegicus, UniProt P25099); test: [3H]-N6-cyclohexyladenosine binding to rat whole brain membranes (A1 affinity, RBA-1)
T2 construct: from tissue; host or cells: rat whole brain membranes
T2 sequence (P25099 1-326): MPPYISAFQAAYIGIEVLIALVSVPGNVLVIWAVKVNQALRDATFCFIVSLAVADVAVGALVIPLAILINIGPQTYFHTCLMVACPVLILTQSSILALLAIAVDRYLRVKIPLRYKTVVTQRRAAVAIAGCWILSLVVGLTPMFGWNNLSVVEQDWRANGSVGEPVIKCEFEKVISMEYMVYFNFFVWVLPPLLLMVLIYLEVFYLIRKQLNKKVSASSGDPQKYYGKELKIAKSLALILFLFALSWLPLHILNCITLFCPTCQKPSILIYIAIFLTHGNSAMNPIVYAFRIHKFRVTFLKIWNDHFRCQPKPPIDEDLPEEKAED

| SMILES | IC50 (adenosine A2 receptor) [nM] | IC50 (adenosine A1 receptor) [nM] | percent suppression of locomotion (mouse locomotor activity; CPA 2 mg/kg IP) [%] | effect on spontaneous exploratory activity (in words) (mouse locomotor activity) | percent suppression of locomotion (mouse locomotor activity; CV-1808 8 mg/kg IP) [%] |
| --- | --- | --- | --- | --- | --- |
| OC[C@H]1O[C@@H](n2cnc3c(NC4CCCC4)ncnc32)[C@H](O)[C@@H]1O [CPA, N^6 -cyclopentyladenosine] |  |  | 94 | inhibition of spontaneous exploratory activity |  |
| Nc1nc(Nc2ccccc2)nc2c1ncn2[C@@H]1O[C@H](CO)[C@@H](O)[C@H]1O [CV-1808, 2-anilinoadenosine] |  |  |  | inhibition of spontaneous exploratory activity | 83 |
| Cn1c(=O)c2nc(C3CCOC3)[nH]c2n(C)c1=O (stereo not shown) [Example 4] | 2000 | 400 |  |  |  |
| CCCn1c(=O)c2[nH]c(C3CCCS3)nc2n(CCC)c1=O (stereo not shown) [Example 5, 1,3-Dipropyl-8-(2-tetrahydrothienyl)xanthine] |  | 88 |  |  |  |

Continued by falling IC50 (adenosine A1 receptor), values first:

| IC50 (adenosine A2 receptor) [nM] | IC50 (adenosine A1 receptor) [nM] | SMILES | percent suppression of locomotion (mouse locomotor activity; CPA 2 mg/kg IP) [%] | effect on spontaneous exploratory activity (in words) (mouse locomotor activity) | percent suppression of locomotion (mouse locomotor activity; CV-1808 8 mg/kg IP) [%] |
| --- | --- | --- | --- | --- | --- |
| 4650 | 28 | CCCn1c(=O)c2[nH]c(C3CCOC3)nc2n(CCC)c1=O (stereo not shown) [Example 3, 1,3-Dipropyl-8-(3-tetrahydrofuranyl)xanthine] |  |  |  |
| 3100 | 20 | CCCn1c(=O)c2[nH]c(C3CCCO3)nc2n(CCC)c1=O (stereo not shown) [Example 2, 1,3-Dipropyl-8-(2-tetrahydrofuranyl)xanthine] |  |  |  |
| 622 | 2 | CCCn1c(=O)c2[nH]c(C3CCSC3)nc2n(CCC)c1=O (stereo not shown) [Example 1, 1,3-Dipropyl-8-(3-tetrahydrothienyl)xanthine] |  |  |  |
